Reference: patent EP0844825B1, “INSECTICIDAL N-(SUBSTITUTED ARYLMETHYL)-4- BIS(SUBSTITUTED PHENYL OR PYRIDYL)METHYL]PIPERIDINES” (FMC CORPORATION, priority 1995, dated 1996)
Like-named read-outs stand apart in the source and are kept apart here.

Key:
[1] = tested on: tobacco budworm (Heliothis virescens [Fabricius]); test: Diet test: test chemical incorporated into artificial diet of tobacco budworm larvae, 5-day exposure; format: in vivo; details: for LC50 / IC50 / mortality at 100 µM / pest or weed control at 100 µM: Heliothis virescens, 120 h; for LC50: read-out: pLC50 (converted); for mortality at 100 µM / pest or weed control at 100 µM: feed or water; for mortality at 100 µM: read-out: Percent Mortality; for Percent Growth Inhibition / pest or weed control at 100 µM: rate of application 4 (negative log of molar concentration in the diet), second instar larvae, 25°C; for pest or weed control at 100 µM: read-out: Percent Growth Inhibition
Experimental: Candidate insecticides were incorporated into an artificial diet for evaluation of insecticidal activity against the tobacco budworm (Heliothis virescens [Fabricius]) in the following manner. Stock solutions of test chemical in dimethyl sulfoxide, ranging from […], were prepared for each rate of application. One hundred microliters of each of the stock solutions was manually stirred into 50 mL of a molten (65-70°C) wheat germ-based artificial diet. The 50 mL of molten diet containing the test chemical was poured evenly into twenty wells in the outer two rows on each side of a twenty-five well, five row plastic tray. (Each well in the tray was about 1 cm in depth, with an opening of 3 cm by 4 cm at the lip.) Molten diet containing only dimethyl sulfoxide at the levels used in the test chemical-treated diet was poured into the five wells in the third (center) row of the tray. Each tray therefore contained one test chemical at a single rate of application, together with an untreated control. The rates of application, expressed as the negative log of the molar concentration, and the corresponding concentrations of the stock solution prepared for each rate are shown below:
Single second instar tobacco budworm larvae, selected at a stage of growth at which they uniformly weigh about 5 mg each, were placed in each well. Upon completion of infestation, a sheet of clear plastic was heat-sealed over the top of the tray by use of a common household flat.iron. The trays were held at 25°C at 60% relative humidity for five days in a growth chamber. Lighting was set at 14 hours of light and 10 hours of darkness. After the 5-day exposure period, mortality counts were taken, and the surviving insects were weighed. From the weights of the surviving insects that fed on the treated diet as compared to those insects that fed on the untreated diet, the percent growth inhibition caused by each test chemical was determined. […] Also, where possible, the negative log of the concentration of the test chemical that provided 50% mortality (pLC50) was determined.

[2] = tested on: tobacco budworm (Heliothis veriscens [Fabricius]); test: Foliar spray test on chick pea plants, tobacco budworm, 96 hour exposure; format: in vivo, Heliothis virescens; details: rate of application 100 ppm, dead plus moribund insects, * = average of more than one test
Experimental: (§1) Candidate insecticides with high pl50 values from the diet test were tested for insecticidal activity in foliar evaluations against tobacco budworm, beet armyworm (Spodoptera exigua [Hubner]), and cabbage looper (Trichoplusia ni [Hubner])
(§2) In these tests against tobacco budworm and beet armyworm, nine-day-old chick pea plants (Cicer arietinum) were sprayed at 20 psi to runoff on both upper and lower leaf surfaces with solutions of test chemical to provide application rates as high as 1000 ppm of test chemical. The solvent used to prepare the solutions of test chemical was 10% acetone or methanol (v/v) and 0.1% of the surfactant octylphenoxypolyethoxyethanol in distilled water. Four replicates, each containing one chick pea plant, for each rate of application of test chemical were sprayed. The treated plants were transferred to a hood, where they were kept until the spray had dried.
(§3) The four chick pea plants for each replicate treated with test chemical as described above were removed from their pots by cutting the stems just above the soil line. The excised leaves and stems from the four plants in each replicate were placed in individual 8-ounce paper cups, each containing a moistened filter paper. Five second-instar (6 days old) tobacco budworms or beet armyworms (7-8 days old) were counted into each cup, taking care not to cause injury. An opaque plastic lid was placed on each cup, which was then held in a growth chamber for a 96 hour exposure period at 25°C and 50% relative humidity. At the end of the 96 hour exposure period the cups were opened, and the numbers of dead, moribund, and live insects were counted. Using the insect counts, the efficacy of the test chemical was expressed in percent control. Percent control is derived from the total number of dead insects (TD) plus the total number of moribund insects (TM) as compared to the total number of insects (TI) in the test: % Control =(TD+TM)/(TI)x 100 [formula]
(§4) The condition of the test plants was also observed for phytotoxicity and for reduction of feeding damage as compared to an untreated control.

[3] = tested on: cabbage looper (Trichoplusia ni [Hubner]); test: Foliar spray test on pinto bean plants, cabbage looper, 96 hour exposure; format: in vivo; details: rate of application 100 ppm, dead plus moribund insects, * = average of more than one test
Experimental: as §1, §2, §3, §4
Foliar tests with cabbage looper were conducted in the same manner as described above, the difference being that pinto bean plants (Phaseolus vulgaris) were used in place of chick pea plants.

[4] = tested on: beet armyworm (Spodoptera exigua [Hubner]); test: Foliar spray test on chick pea plants, beet armyworm, 96 hour exposure; format: in vivo; details: rate of application 100 ppm, dead plus moribund insects, * = average of more than one test
Experimental: as §1, §2, §3, §4

[5] = 5 days, * = average of more than one test
[6] = negative log of the concentration that provides 50% growth inhibition, by linear regression, 5 days, * = average of more than one test, read-out: pl50 (converted)
[7] = negative log of the concentration that provides 50% mortality, 5 days, * = average of more than one test

| SMILES | LC50 [1] [nM] | IC50 ([1]; read-out: pl50) [nM] | mortality at 100 µM [1] [%] | Percent Growth Inhibition [1, 5] [%] | Percent Control TBW [2] | Percent Control CL [3] | Percent Control BAW [4] | IC50 [1, 6] [nM] | LC50 [1, 7] [nM] | pest or weed control at 100 µM [1, 5] [%] | pl50 ([1]; negative log of the concentration that provides 50% growth inhibition, by linear regression, 5 days, * = average of more than one test) |
| --- | --- | --- | --- | --- | --- | --- | --- | --- | --- | --- | --- |
| CCCOc1ccc(CN2CCC(C(O)(c3ccc(C(F)(F)F)cc3)c3ccc(C(F)(F)F)cc3)CC2)cc1 [Compound 102] | 3160 | < 1000 | 100 | 100 | 98* % | 100* % | 100* % |  |  |  |  |
| Cn1nnc(-c2ccc(CN3CCC(C(O)(c4ccc(C(F)(F)F)cc4)c4ccc(C(F)(F)F)cc4)CC3)cc2)n1 [Compound 31, N-[4-(2-methyl-2H-tetrazol-5-yl)phenylmethyl]-4-[bis(4-trifluoromethylphenyl)hydroxymethyl]piperidine] |  |  | 100 |  | 100% | 100% | 100* % | ≤ 316 | 2510 | 100 |  |
| CCn1nnc(-c2ccc(C[N+]3([O-])CCC(C(O)(c4ccc(C(F)(F)F)cc4)c4ccc(C(F)(F)F)cc4)CC3)cc2)n1 (stereo not shown) [Compound 34] |  |  | 100 | 100 | 100% | 100% | 100% | ≤ 316 | 1260 |  |  |
| COc1ccc(CN2CCC(C(O)(c3ccc(OC(F)(F)F)cc3)c3ccc(OC(F)(F)F)cc3)CC2)cc1 [Compound 1, N-(4-methoxyphenylmethyl)-4-[bis(4-trifluoromethoxyphenyl)hydroxymethyl]piperidine] |  |  | 100 |  | 80% | 100% | 55% | 794 | 25100 | 100 |  |
| Cn1nnc(-c2ccc(C[N+]3([O-])CCC(C(O)(c4ccc(C(F)(F)F)cc4)c4ccc(C(F)(F)F)cc4)CC3)cc2)n1 (stereo not shown) [Compound 32, N-[4-(2-methyl-2H-tetrazol-5-yl)phenylmethyl]-4-[bis(4-trifluoromethylphenyl)hydroxymethyl]piperidine N-oxide] |  |  | 100 |  | 100% | 100% | 100* % | ≤ 316 | 2510 | 100 |  |
| Cn1nnc(-c2ccc(CN3CCC(C(O)(c4ccc(OC(F)(F)F)cc4)c4ccc(OC(F)(F)F)cc4)CC3)cc2)n1 [Compound 9, N-[4-(2-methyl-2H-tetrazol-5-yl)phenylmethyl]-4-[bis(4-trifluoromethoxyphenyl)hydroxymethyl]piperidine] |  |  | 100 |  | 100% | 100% | 100% | ≤ 316 | 2510 | 100 | 6.6 |
